Measured values: paper PMC12568646, “Enzymatic combinatorial synthesis of E-64 and related cysteine protease inhibitors” (Nature Chemical Biology, 2025)
Each block holds one compound with its values, some of them ahead of it.

Columns and labels:
Cp1D = biological target: T1, Cp1D (Aspergillus flavus, UniProt A0A7U2QR00); assay: LC-MS of amide product formation; type: biochemical; conditions: 5 mM agmatine, 10 mM ATP, 10 mM MgCl2, 50 mM sodium phosphate pH 8.0, 30 °C
T1 construct: gene F9C07_2276917; full-length intron-free ORF in pET28a, 6xHis-tagged, expressed in E. coli BL21(DE3)
T1 sequence (A0A7U2QR00 1-463): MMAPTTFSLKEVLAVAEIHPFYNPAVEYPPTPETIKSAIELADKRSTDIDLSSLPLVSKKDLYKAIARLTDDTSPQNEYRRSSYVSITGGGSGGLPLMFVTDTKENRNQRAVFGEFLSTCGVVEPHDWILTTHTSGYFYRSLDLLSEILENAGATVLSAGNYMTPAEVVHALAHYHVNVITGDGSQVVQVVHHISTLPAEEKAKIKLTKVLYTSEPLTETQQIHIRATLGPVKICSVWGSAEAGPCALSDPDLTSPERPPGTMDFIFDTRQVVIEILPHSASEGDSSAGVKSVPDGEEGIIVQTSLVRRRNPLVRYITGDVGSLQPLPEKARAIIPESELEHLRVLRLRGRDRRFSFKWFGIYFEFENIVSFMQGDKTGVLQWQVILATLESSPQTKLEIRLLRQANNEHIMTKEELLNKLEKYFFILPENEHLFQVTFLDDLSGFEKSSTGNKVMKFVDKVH

papain = biological target: T2, papain (Carica papaya, UniProt P00784); assay: X-ray co-crystal structure; type: binding; conditions: covalent, active-site Cys25
T2 construct: mature native enzyme, twice-crystallized from papaya latex (Sigma)

cathepsin B = biological target: T3, cathepsin B (Homo sapiens, UniProt P07858); assay: fluorogenic Z-Phe-Arg-AMC assay; type: biochemical; conditions: 40 μM Z-Phe-Arg-AMC, citrate phosphate pH 5.5, 5 mM DTT, 37 °C; covalent, irreversible
T3 construct: gene CTSB

Cp1B = tested on: T4, Cp1B; assay: X-ray crystal structure, […] Å; parameters: species or system Aspergillus flavus; conditions: ATP-binding site; crystal set up with ATP, MgCl2 and (±)-t-ES; MES also bound
T4 construct: full-length intron-free ORF in pET28a (pML8010), 6xHis-tagged, expressed in E. coli BL21(DE3); domains span residues 5-502

T2 sequence (P00784 134-345): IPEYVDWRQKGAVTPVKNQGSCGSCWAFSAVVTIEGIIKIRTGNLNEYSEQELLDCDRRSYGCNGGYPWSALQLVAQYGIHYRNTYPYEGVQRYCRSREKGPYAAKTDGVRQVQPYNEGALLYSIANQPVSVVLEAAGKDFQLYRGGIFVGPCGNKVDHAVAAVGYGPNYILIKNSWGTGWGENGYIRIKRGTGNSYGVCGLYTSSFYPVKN

Structure (SMILES): CC[C@H](C)[C@H](NC(=O)[C@@H]1O[C@H]1C(=O)O)C(=O)O [(2R,3R)-t-ES-L-Ile]
KM (apparent) (Cp1D): much more efficient compared to that toward (2R,3R)-t-ES-L-Ile

IC50 (cathepsin B): 14 ± 1.1 nM
Structure (SMILES): NCCCCCCCCNC(=O)[C@@H](NC(=O)[C@H]1O[C@@H]1C(=O)O)C1CCC1 [(2S,3S)-t-ES-a9-b7]
X-ray co-crystal structure (papain): (2S,3S)-t-ES-a9-b7 was observed to be bound covalently to the active site cysteine

Structure (SMILES): Nc1ncnc2c1ncn2[C@@H]1O[C@H](CO)[C@@H](O)[C@H]1O [adenosine]
X-ray crystal structure, 2.7 Å (Cp1B): crystal structure of Cp1B complexed with adenosine and 2-morpholinoethanesulfonic acid (MES) was determined
